The text below walks through data of patent US20080220416A1, “Compositions for Inhibiting Cell Growth and Inducing Apoptosis in Cancer Cells and Methods of Use Thereof” (THE BOARD OF TRUSTEES OF THE UNIVERSITY OF ILLINOI, priority 2004, published 2008).

Square brackets hold non-standard residues; d marks the D form. Peptide text beside a SMILES is read from it. * marks the point of attachment. Nle = CCCC[C@H](N)C(=O)O; Cbz = O=C(OCc1ccccc1)*

A word on the IC50: it is the concentration that gives 50% inhibition.

The test system of data set [1] is CaSki human cervical cancer cells. The data set is described as follows: Cell growth inhibition assay in CaSki cervical cancer cells (crystal violet). In kind it is cell-based. The method, then:
The cell growth inhibition assay was performed in a 96-well plate format. Inhibition was assessed by monitoring the protein content in each well using the crystal violet staining method as described by Skehan et al., 1990, J Natl Cancer Inst 82:1107-1112 and Prochaska et al., 1988, Anal Biochem 169:328-336. Briefly, cells were plated at a density of 2×10^4 cells/ml in 200 μl of DMEM supplemented with 10% FBS. The cells were transfected with siRNAs ([…] siRNA oligos/well) using Oligofectamine Transfection Reagents (InVitrogen) according to manufacturer's instructions. Twenty-four hours post-transfection, the media was decanted, 190 μl of fresh media was added to each well, and 10 μl of cisplatin (4 mM) dissolved in 10% DMSO was added to the wells as a series 2-fold dilutions (final concentration of cisplatin in the wells ranged from 0.5-200 μM). The cells were incubated with cisplatin for 48 hrs, the media was decanted, and the cells were submerged with 200 μl of 0.2% crystal violet in 2% ethanol for 10 min. The plates were rinsed for 2 min with tap water. The bound dye was solublized by incubation at 37° C. for 1 h with 200 μl of 0.5% sodium dedecyl sulfate in 50% ethanol. The plates were then scanned with an ELISA reader at 562 nm. The percentage cell growth inhibition mediated by cisplatin was calculated as: % inhibition=[1-(OD of cisplatin-treated cells/OD DMSO-treated control cells)]×100/100.
CaSki human cervical cancer cells treated for 48 hrs with z-Leu-Leu-Nle-CHO alone were tested for cell growth inhibition. The cell growth inhibition assay was performed in a 96-well plate format. Inhibition was assessed by monitoring the protein content in each well using the crystal violet staining method Skehan, P. et al., 1990, J Natl Cancer Inst 82:1107-1112. Briefly, cells were plated at a density of 2×10^4 cells/ml in 200 μl of DMEM supplemented with 10% FBS. After pre-incubation period of 24 h, the media was decanted, 190 μl of fresh media was added to each well, and 10 μl (150 μM) of z-Leu-Leu-Nle-CHO dissolved in 10% DMSO was added to the wells as a series 2-fold dilutions (final concentration of cisplatin in the wells ranged from 0.05-7.5 μM). The cells were incubated with z-Leu-Leu-Nle-CHO for 48 hrs, the media was decanted, and the cells were submerged with 200 μl of 0.2% crystal violet in 2% ethanol for 10 min. The plates were rinsed for 2 min with tap water. The bound dye was solublized by incubation at 37° C. for 1 h with 200 μl of 0.5% sodium dedecyl sulfate in 50% ethanol. The plates were then scanned with an ELISA reader at 562 nm. The percentage cell growth inhibition mediated by test agents was calculated as: % inhibition=[1-(OD of z-Leu-Leu-Nle-CHO-treated cells/OD DMSO-treated control cells)]×100/100.
To determine whether z-Leu-Leu-Nle-CHO treatment potentiates the effect of cisplatin on human […] cancer cells, the CaSki cells were treated for 48 h with 0.1-0.8 μM z-Leu-Leu-Nle-CHO and various concentrations of cisplatin (2-fold dilutions of a cisplatin solution to produce final concentrations of 1.6-200 μM cisplatin). Following the z-Leu-Leu-Nle-CHO and cisplatin treatment, the cells were tested for growth inhibition as described above.
Isobologram analysis was performed by measuring the IC50 values of cisplatin in the presence of various concentrations of z-Leu-Leu-Nle-CHO. These IC50 values were plotted with SigmaPlot, and a straight line was traced between the IC50 values of cells treated with either cisplatin or z-Leu-Leu-Nle-CHO alone.

For data set [2], the system named is C8161 melanoma tumors. The data set is described as follows: C8161 melanoma xenograft in Nude mice, peri-tumoral bortezomib.
In data set [3] the test system is PC-3 prostate cells. The data set is described as follows: z-Leu-Leu-Nle-CHO on NOXA and apoptosis in PC-3 prostate cells. As to conditions: 10 μM. The data set is classed as cell-based.
For data set [4], the system named is T47D:A18 breast cancer cells. The data set is described as follows: Cytotoxicity assay in T47D:A18 breast cancer cells. The data set is classed as cell-based. To be noted: T47D:A18 (p53 wild-type, ERα-positive); 48 h; read-out: IC50, cell growth inhibition. The method, then: Cytotoxicity and growth of transfected cells were estimated by a standard assay used for cancer drug screening, through the total amount of TCA-precipitated cell proteins after drug treatment (Likhitwitayawuid, K et al., 1993, J Nat Prod 56:30-38): 200 μl of cell suspension (10^5 cells/ml) were added to each well in a 96-well plate. After incubation at, 37° C., in 5% CO2 (30 minutes to 72 hours depending on the time course chosen), 50 μl 50% trichloroacetic acid was added to each well. After incubation at 4° C. for 1 hour, precipitates were washed with water 4-5 times and air dried overnight. One hundred μl of SRB solution (0.4% sulforhodamine B in 1% acetic acid, filtered before use) was added to each well for 30 minutes. Wells were washed with 1% acetic acid 4-5 times and air dried. Two hundred μl 10 mM Tris base was added to each well. Plates were shaken for 5-10 minutes and OD at 490 nm (OD490) was recorded via ELISA reader. To assay matrix invasion, 300 μl of cell suspension (10^6 cells/mL in serum-free medium) were added to invasion inserts (BioCoat Matrigel Invasion Chambers, Becton Dickinson, Bedford, Mass.) and incubated for 22 hours at 37° C., 5% CO2. Cells were stained with 0.9% crystal violet in 10% ethanol for 20 minutes. […] After removal of the non-invading cells from the interior of the inserts, stained invading cells were lysed in 10% acetic acid and OD595 was determined. […]

On to “5′-AAGTGTCTGAGGCCAGCAAGA-3′ [Notch-1 siRNA]”, for which the “effect on cytotoxicity of cisplatin” value in data set [1] (siRNA 24 h before cisplatin) is “strikingly potentiated the cytotoxicity of cisplatin”.

Regarding `CC(C)C[C@H](NC(=O)[C@H](Cc1ccccc1)NC(=O)c1cnccn1)B(O)O` [bortezomib, N-(2-pyrazine)carbonyl-L-phenylalanine-L-leucine boronic acid], the tumor growth entry in data set [2] (1.25 mg/kg or 2.5 mg/kg, four peri-tumoral injections, compared to PBS) was “regression of melanoma tumors occurred”. Further, the tumor weight entry in data set [2] (1.25 mg/kg versus PBS, day 20) is reported as “significant (p<0.01) reduction in tumor weight”; in data set [2] (2.5 mg/kg dose compared with 1.25 mg/kg) it was “no further reduction was apparent”. Moreover, the “histological appearance of tumor (H&E)” value in data set [2] (2.5 mg/kg) is “scattered apoptotic C8161 cells are present”.

Consider `CCCC[C@@H](C=O)NC(=O)[C@H](CC(C)C)NC(=O)[C@H](CC(C)C)NC(=O)OCc1ccccc1` [z-Leu-Leu-Nle-CHO, N-benzyloxycarbonyl-leucyl-leucyl-norleucinal] (Cbz-Leu-Leu-[Nle]-aldehyde), for which, in data set [3] (PC-3, p53 null), the NOXA expression result is “induced expression of NOXA”. In data set [3] (PC-3, after 24 hrs, data not shown), this molecule came in with a dead cells of over 50%. Besides, the “effect on cisplatin cell growth inhibition” value in data set [1] (0.1-0.8 μM, doses lower than IC50, 48 h) is “potentiated the effects of cisplatin”. Moreover, the IC50 is 640 nM in data set [1] (Homo sapiens, Ca-Ski, alone, 48 hrs, read-out: IC50, cell growth inhibition) and 570 nM in data set [4]. For the same molecule, the “isobologram analysis with cisplatin” value in data set [1] (especially at low cisplatin concentrations (1-50 μM)) is given as “moderate synergism”.
